Laboratory results reported in US5849753A, “Pyridyl imidazole derivatives and processes for the preparation thereof” (Korea Research Institute of Chemical Technology, priority 1994, dated 1998).

Tests used:
angiotensin II receptor = assay: Angiotensin II Receptor Binding Assay ([3H] angiotensin II binding inhibition); conditions: [3H] angiotensin II ligand; 60 minutes, 25° C.; test concentration not given
How it was run: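 Rat membranes (SD adrenal cortex or medulla, Wistar liver) in 50 mM Tris pH 7.2, 5 mM MgCl2, 0.25% BSA were incubated with [3H]angiotensin II and test compound at graded concentrations for 60 min at 25 °C. Bound radioactivity was collected by GF/C filtration and scintillation counting, and percent binding inhibition was calculated versus untreated and blank.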

renal hypertensive rat = assay: Blood pressure lowering effect in renal hypertension (renal hypertensive rats, intravenous or oral); type: in vivo, male Sprague-Dawley rats; conditions: 3 mg, read-out: Maxium Blood Pressure Lowering Effect(%)
How it was run: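 Renal hypertension induced in male Sprague-Dawley rats by complete left renal artery ligation at 4 weeks of age; rats with systolic pressure above 180 mmHg at 6–8 days were used. Compounds given i.v. (in 0.05N KOH) or p.o. (Tween 80 suspension); blood pressure and heart rate recorded via carotid catheter up to 24 h, compared with losartan.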

unanesthetized dogs = assay: Blood pressure lowering effect in unanesthetized dogs (furosemide treated); type: in vivo, dog; set-up: Maximum blood pressure lowering effect in a dog: unit not given here; conditions: oral; for Blood pressure variation with time: dogs, 1.0 mg

SMILES: CCCCc1nc2cc(-c3ccccn3)c(C(OC)OC)nc2n1Cc1ccc(-c2ccccc2-c2nnn[nH]2)cc1 [Example 8, 2-butyl-5-dimethoxymethyl-6-(pyridin-2-yl)-3-[2'-(1H-tetrazol-5-yl)-biphenyl-4-ylmethyl]-3H-imidazo[4,5-b]pyridine]
- Binding Inhibition(%) (angiotensin II receptor): 93.4%
- change in vivo at 3 mg (renal hypertensive rat): -50%
- Maximum blood pressure lowering effect in a dog (unanesthetized dogs; 0.1 mg/kg): 17
- Maximum blood pressure lowering effect in a dog (unanesthetized dogs; 0.3 mg/kg): 32
- Maximum blood pressure lowering effect in a dog (unanesthetized dogs; 1 mg/kg): 34
- Blood pressure variation with time (unanesthetized dogs; 0.5 hr): -32.7%
- Blood pressure variation with time (unanesthetized dogs; 1 hr): -29.9%
- Blood pressure variation with time (unanesthetized dogs; 2 hr): -33.0%
- Blood pressure variation with time (unanesthetized dogs; 4 hr): -26.8%
- Blood pressure variation with time (unanesthetized dogs; 6 hr): -25.0%
- Blood pressure variation with time (unanesthetized dogs; 8 hr): -19.7%
